Description: To test for sensor stability and performance, a cartridge use life test was completed after one month of cartridge shelf-life and then repeated after eight months of cartridge shelf-life.
Additionally, reagent performance on the GEM® Premier™ 5000 system was evaluated based on drift of parameters for assays performed on the GEM® Premier™ 5000 system. Drift for each assay parameter constitutes a deviation of measured results for each assay parameter from its factory assigned target. For example, ρO2 was measured several times during cartridge use at a defined frequency on the GEM® Premier™ 5000, and the drift was calculated for each measurement as the difference between measured […] for a composition and the ρO2 assigned to the composition at manufacture.
In this experiment, the control containers were confirmed to contain limited or no metal contamination (e.g., in parts-per-billion, cobalt 0.10, chromium 2.24, copper 0.64, iron 3.23, and manganese 0.63). The limits columns represents the maximum change that can occur during composition shelf-life according to the GEM® Premier™ 5000 design specifications.

**Q.** Which “effect on sensor performance and the performance and stability of the compositions” value does the source give for `C[C@H]1COc2c(N3CCN(C)CC3)c(F)cc3c(=O)c(C(=O)O)cn1c23` [levofloxacin] here?
**A.** The value was “does not negatively affect sensor performance”.

— EP4571306A1, “STABILIZING OXYGEN IN A COMPOSITION” (priority 2023, dated 2025)
